Reference: PubChem BioAssay AID1963977 (Molecular Pharmacology Branch, DTP, NCI, 2024)
pIC50: −log10 of the molar value.

Tested on: 624824-186-R-J3-PDC multicell spheroids, viability
Assay: Anticancer human tumor 624824-186-R-J3-PDC patient-derived colon adenocarcinoma cell line growth inhibition [PI3K]
Conditions: for pIC50: curve of first compound; for viability, T/C: stronger effect = lower value
Summary of the method: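 Tumor cells were combined with HUVEC and MSCs into spheroids, then dosed with PI3K-inhibitor combinations over half-log ranges capped near clinical Cmax or 10 microM.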

[1] = second compound 0.00316 µM, first compound 0.0316 µM
[2] = second compound 0.00316 µM, first compound 0.1 µM
[3] = second compound 0.00316 µM, first compound 0.316 µM
[4] = second compound 0.00316 µM, first compound 1 µM
[5] = second compound 0.01 µM, first compound 0.0316 µM
[6] = second compound 0.01 µM, first compound 0.1 µM
[7] = second compound 0.01 µM, first compound 0.316 µM
[8] = second compound 0.01 µM, first compound 1 µM
[9] = second compound 0.0316 µM, first compound 0.0316 µM
[10] = second compound 0.0316 µM, first compound 0.1 µM
[11] = second compound 0.0316 µM, first compound 0.316 µM
[12] = second compound 0.0316 µM, first compound 1 µM
[13] = second compound 0.1 µM, first compound 0.0316 µM
[14] = second compound 0.1 µM, first compound 0.1 µM
[15] = second compound 0.1 µM, first compound 0.316 µM
[16] = second compound 0.1 µM, first compound 1 µM
[17] = second compound 0.316 µM, first compound 0.0316 µM
[18] = second compound 0.316 µM, first compound 0.1 µM
[19] = second compound 0.316 µM, first compound 0.316 µM
[20] = second compound 0.316 µM, first compound 1 µM
[21] = second compound 1 µM, first compound 0.0316 µM
[22] = second compound 1 µM, first compound 0.1 µM
[23] = second compound 1 µM, first compound 0.316 µM
[24] = second compound 1 µM, first compound 1 µM
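Further: spheroids exposed to agents for seven days before luminescence read.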
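Wherever viability, T/C is given: luminescent signal used as a stand-in for spheroid viability; percent viability relative to DMSO vehicle control wells taken as 100%.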

With `CC(C)NCC(C(=O)N1CCN(c2ncnc3c2C(C)CC3O)CC1)c1ccc(Cl)cc1` (centres undefined) + COc1c(OCCCN2CCOCC2)ccc2c3n(c(=NC(=O)c4cnc(N)nc4)nc12)CCN3 the pIC50 (second compound 0.00316 µM) was under 5.00, the pIC50 (second compound 0.01 µM) was under 5.00 and the pIC50 (second compound 0.0316 µM) was 5.12. For the same molecule, the pIC50 (second compound 0.1 µM) was 5.31, the pIC50 (second compound 0.316 µM) was 7.45 and the pIC50 (second compound 1 µM) was over 7.50. It also gave a viability, T/C [1] of 101%, a viability, T/C [2] of 103% and a viability, T/C [3] of 106%. It also gave a viability, T/C [4] of 76.1%, a viability, T/C (second compound 0.00316 µM, first compound 3.16 µM) of 68.3% and a viability, T/C (second compound 0.00316 µM, first compound 10 µM) of 56.4%. The viability, T/C [5] was 109%, the viability, T/C [6] was 97.1% and the viability, T/C [7] was 101%. The viability, T/C [8] was 82.2%, the viability, T/C (second compound 0.01 µM, first compound 3.16 µM) was 64.5% and the viability, T/C (second compound 0.01 µM, first compound 10 µM) was 52.7%. The viability, T/C [9] was 104%, the viability, T/C [10] was 110% and the viability, T/C [11] was 85.6%. The viability, T/C [12] was 84.8%, the viability, T/C (second compound 0.0316 µM, first compound 3.16 µM) was 60% and the viability, T/C (second compound 0.0316 µM, first compound 10 µM) was 46.7%. It also gave a viability, T/C [13] of 73.2%, a viability, T/C [14] of 75% and a viability, T/C [15] of 66.2%. For the same molecule, the viability, T/C [16] was 60.8%, the viability, T/C (second compound 0.1 µM, first compound 3.16 µM) was 57.4% and the viability, T/C (second compound 0.1 µM, first compound 10 µM) was 41.4%. It also gave a viability, T/C [17] of 47.9%, a viability, T/C [18] of 49% and a viability, T/C [19] of 46.5%. For the same molecule, the viability, T/C [20] was 38.5%, the viability, T/C (second compound 0.316 µM, first compound 3.16 µM) was 37.5% and the viability, T/C (second compound 0.316 µM, first compound 10 µM) was 33.7%. For the same molecule, the viability, T/C [21] was 29.4%, the viability, T/C [22] was 28.5% and the viability, T/C [23] was 28.7%. For the same molecule, the viability, T/C [24] was 27.1%, the viability, T/C (second compound 1 µM, first compound 3.16 µM) was 26.9% and the viability, T/C (second compound 1 µM, first compound 10 µM) was 27.8%.
`CCN1CCN(Cc2ccc(Nc3ncc(F)c(-c4cc(F)c5nc(C)n(C(C)C)c5c4)n3)nc2)CC1` + COc1c(OCCCN2CCOCC2)ccc2c3n(c(=NC(=O)c4cnc(N)nc4)nc12)CCN3 was tested, and the pIC50 (second compound 0.00316 µM) was under 6.00, the pIC50 (second compound 0.01 µM) was under 6.00 and the pIC50 (second compound 0.0316 µM) was under 6.00. It also gave a pIC50 (second compound 0.1 µM) of 7.22, a pIC50 (second compound 0.316 µM) of over 8.50 and a pIC50 (second compound 1 µM) of over 8.50. It also gave a viability, T/C (second compound 0.00316 µM, first compound 0.00316 µM) of 99%, a viability, T/C (second compound 0.00316 µM, first compound 0.01 µM) of 107% and a viability, T/C [1] of 104%. For the same molecule, the viability, T/C [2] was 116%, the viability, T/C [3] was 107% and the viability, T/C [4] was 94.8%. For the same molecule, the viability, T/C (second compound 0.01 µM, first compound 0.00316 µM) was 99.2%, the viability, T/C (second compound 0.01 µM, first compound 0.01 µM) was 94.9% and the viability, T/C [5] was 99.7%. For the same molecule, the viability, T/C [6] was 95.2%, the viability, T/C [7] was 76.5% and the viability, T/C [8] was 74.7%. The viability, T/C (second compound 0.0316 µM, first compound 0.00316 µM) was 99%, the viability, T/C (second compound 0.0316 µM, first compound 0.01 µM) was 99.1% and the viability, T/C [9] was 88.3%. It also gave a viability, T/C [10] of 68.5%, a viability, T/C [11] of 57.5% and a viability, T/C [12] of 61.5%. The viability, T/C (second compound 0.1 µM, first compound 0.00316 µM) was 81%, the viability, T/C (second compound 0.1 µM, first compound 0.01 µM) was 73.2% and the viability, T/C [13] was 57.5%. It also gave a viability, T/C [14] of 40.8%, a viability, T/C [15] of 40.7% and a viability, T/C [16] of 50.5%. For the same molecule, the viability, T/C (second compound 0.316 µM, first compound 0.00316 µM) was 48.4%, the viability, T/C (second compound 0.316 µM, first compound 0.01 µM) was 41.7% and the viability, T/C [17] was 41.5%. It also gave a viability, T/C [18] of 27.4%, a viability, T/C [19] of 41.7% and a viability, T/C [20] of 52.4%. For the same molecule, the viability, T/C (second compound 1 µM, first compound 0.00316 µM) was 27.7%, the viability, T/C (second compound 1 µM, first compound 0.01 µM) was 32.4% and the viability, T/C [21] was 23.4%. The viability, T/C [22] was 24.3%, the viability, T/C [23] was 34.9% and the viability, T/C [24] was 54.8%.
